According to US9056999B2, “Ultraviolet-curable aqueous ink, ink cartridge, recording apparatus and recording method” (Fuji Xerox Co., Ltd., priority 2013, dated 2015):

Experiment: Solubility of thioxanthone compound and tertiary amine compound in water-soluble organic solvent at 25° C.
[1] = in 3-morpholino-1,2-propanediol
[2] = in 4-(2-hydroxyethyl)morpholine

SMILES: CC(C)c1ccc2sc3ccccc3c(=O)c2c1 [2-isopropylthioxanthone]
- solubility (25° C.) (in 4-ethylmorpholine): 30 mass %

SMILES: CCc1cc(CC)c2sc3ccccc3c(=O)c2c1 [Kayacure DETX-S, 2,4-diethylthioxanthone]
- solubility (25° C.) (in 2-(2-butoxyethoxy)ethanol): 17 mass %
- solubility (25° C.) (in 3-methylsulfolane): 4 mass %
- solubility (25° C.) [1]: 9 mass %
- solubility (25° C.) (in 4-(2-aminoethyl)morpholine): 14 mass %
- solubility (25° C.) [2]: 15 mass %
- solubility (25° C.) (in 4-acetylmorpholine): 20 mass %

SMILES: CCOC(=O)c1ccc(N(C)C)cc1 [Kayacure EPA, 4-dimethylamino ethyl benzoate]
- solubility (25° C.) (in 2-(2-butoxyethoxy)ethanol): 30 mass %
- solubility (25° C.) (in 3-methylsulfolane): 18 mass %
- solubility (25° C.) [1]: 30 mass %
- solubility (25° C.) (in 4-(2-aminoethyl)morpholine): 30 mass %
- solubility (25° C.) [2]: 30 mass %
- solubility (25° C.) (in 4-acetylmorpholine): 35 mass %
- solubility (25° C.) (in 4-ethylmorpholine): 40 mass %
- solubility (25° C.) (in 4-hydroxypropylmorpholine): 18 mass %

SMILES: CCOC(=O)c1ccc(N(CC)CC)cc1 [4-diethylamino ethyl benzoate]
- solubility (25° C.) [2]: 27 mass %
